Here are results for one compound from patent US10130629B2, “Pharmaceutical combinations” (Novartis AG, priority 2015, dated 2018).

Experiment [1] deals with HuH-7 hepatocellular carcinoma cells. Kind of experiment: CellTiter Glo (CTG) proliferation assay. Format: cell-based. The note with it: Homo sapiens, Huh-7, 72 h; 3 days incubation; half-maximal growth inhibition; read-out: HUH7 proliferation (nM) CTG. The procedure: CellTiter Glo (CTG) assay: The functional effect of compounds on cell proliferation is assessed using HuH-7 hepatocellular carcinoma cells obtained from the Japanese Collection of Research Bioresources Cell Bank (Cat# JCRB0403) and cultured in the vendor-recommended medium (DMEM high glucose (Amimed Cat#1-26F01-I), 10% foetal calf serum (Invitrogen Cat#16140-071), 1 mM sodium pyruvate (Amimed Cat#5-60F00-H), 1× Penicillin/Streptomycin (Amimed Cat#4-01F00-H)) at 37° C. in a humidified 5% CO2 incubator. Compound-mediated suppression of cell proliferation/viability is assessed by quantification of cellular ATP levels using the CellTiter-Glo (CTG) reagent (Promega, Cat# G7573). […] Dose-response effects are assessed by 3-fold serial dilutions of the test compound, starting at 10 μM. Following incubation of the cells for 3 days at 37° C. and 5% CO2, the effect of inhibitors on cell viability is quantified following addition of 50 μl CTG and luminescence measurement (integration time: 500 ms) as per vendor manual, using a correspondingly equipped multi-mode plate reader (M200Pro, TECAN, Switzerland). For data analysis, the assay background value determined in wells containing medium, but no cells, is subtracted from all data points. […] Compound concentrations leading to half-maximal growth inhibition ([…]) are determined using standard four parameter curve fitting (XLfit 5.2., IDBS, UK).

For experiment [2] the test system is unchanged. The experiment is described as follows: Methylene blue staining proliferation assay (MBS). The experiment is classed as cell-based. The following applies: Homo sapiens, 72 hours after compound addition, read-out: HUH7 proliferation (nM) MBS. The protocol: Methylene blue staining proliferation assay (MBS): The effect of the compound on cell proliferation is assessed using HuH-7 hepatocellular carcinoma cells obtained from the Japanese Collection of Research Bioresources Cell Bank (Cat# JCRB0403) and cultured in the vendor-recommended medium (DMEM high glucose (Amimed Cat#1-26F01-I), 10% foetal calf serum (Invitrogen Cat#16140-071), 1 mM sodium pyruvate (Amimed Cat#5-60F00-H), 1× Penicillin/Streptomycin (Amimed Cat#4-01F00-H)) at 37° C. in a humidified 5% CO2 incubator. Specifically, 5000 cells/well were seeded in 96-well tissue culture plates (TPP Cat#92696) in a total media volume of 100 μl/well and increasing compound dilutions or DMSO were added 24 hours thereafter in triplicates. 72 hours after compound addition, cells were fixed by adding 25 μL/well of 20% glutaraldehyde (Sigma Aldrich Cat# G400-4) and incubated for 10 minutes at room temperature. Cells were washed three times with H2O, 200 μL/well and stained with 100 μL/well 0.05% methylene blue (ABCR GmbH Cat# AB117904) for 10 minutes at room temperature. Cells were washed 3 times with H2O, 200 μL/well and then lysed by adding 200 μL/well of 3% HCl (Fluka Cat#84422) for 30 minutes at room temperature with shaking. Optical density was measured at A650 nm. […]

Take `COCCNc1cc(NC(=O)N2CCCc3cc(CN4CCN(C)CC4=O)c(C=O)nc32)ncc1C#N` [Example 83, N-(5-cyano-4-((2-methoxyethyl)amino)pyridin-2-yl)-7-formyl-6-((4-methyl-2-oxopiperazin-1-yl)methyl)-3,4-dihydro-1,8-naphthyridine-1(2H)-carboxamide]: the IC50 worked out at 60.9 nM in experiment [1] and 12 nM in experiment [2].
